In US12441733B2, “Substituted 2,4-dioxotetrahydropyrimidines as intermediates in the synthesis of bruton's tyrosine kinase inhibitors” (Novartis AG, priority 2018, dated 2025):

Biological target: T1, BTK-GFP (Homo sapiens, UniProt Q06187+Q96SW2)
T1 construct: expressed in transfected cells; host or cells: HEK293A (Invitrogen R70507), lentiviral transduction with pLenti6-BTK-GFP-Ires-RFP, blasticidin selection
Test: BTK-GFP protein abundance flow cytometry assay in HEK293A cells
Type: cell-based
Details: HEK293A BTK-GFP-iresRFP cells, 24 h; for DC50: GFP signal by flow cytometry, concentration at which 50% maximal degradation was observed; for BTK deg Amax: % protein remaining at the concentration at which maximum degradation is seen
Procedure, shortened: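 HEK293A cells stably expressing bicistronic BTK-GFP-IRES-RFP (C-terminal GFP tag) via lentiviral vector. Degradation read by flow cytometry as loss of GFP signal after degrader treatment. DC50 is concentration giving 50% maximal degradation; Amax is % protein remaining at maximal degradation.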

T1 sequence (Q06187 whole entry): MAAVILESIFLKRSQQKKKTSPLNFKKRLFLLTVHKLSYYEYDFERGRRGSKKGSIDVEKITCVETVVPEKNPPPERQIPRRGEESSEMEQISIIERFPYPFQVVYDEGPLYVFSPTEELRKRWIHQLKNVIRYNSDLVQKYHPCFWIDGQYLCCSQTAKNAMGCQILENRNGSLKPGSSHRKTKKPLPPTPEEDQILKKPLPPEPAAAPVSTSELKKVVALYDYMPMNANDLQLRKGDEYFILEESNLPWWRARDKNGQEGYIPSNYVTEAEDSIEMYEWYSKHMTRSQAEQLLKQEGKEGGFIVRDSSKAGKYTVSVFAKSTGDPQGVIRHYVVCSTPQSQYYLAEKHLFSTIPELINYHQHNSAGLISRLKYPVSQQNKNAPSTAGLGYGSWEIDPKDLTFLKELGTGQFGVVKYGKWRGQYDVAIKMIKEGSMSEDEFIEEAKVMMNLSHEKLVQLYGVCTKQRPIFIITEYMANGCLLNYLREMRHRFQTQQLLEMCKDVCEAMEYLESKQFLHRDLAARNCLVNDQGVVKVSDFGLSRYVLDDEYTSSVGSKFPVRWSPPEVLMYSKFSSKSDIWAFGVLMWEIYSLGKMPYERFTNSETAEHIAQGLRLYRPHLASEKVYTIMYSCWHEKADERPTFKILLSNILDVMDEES
T1 sequence (Q96SW2 whole entry): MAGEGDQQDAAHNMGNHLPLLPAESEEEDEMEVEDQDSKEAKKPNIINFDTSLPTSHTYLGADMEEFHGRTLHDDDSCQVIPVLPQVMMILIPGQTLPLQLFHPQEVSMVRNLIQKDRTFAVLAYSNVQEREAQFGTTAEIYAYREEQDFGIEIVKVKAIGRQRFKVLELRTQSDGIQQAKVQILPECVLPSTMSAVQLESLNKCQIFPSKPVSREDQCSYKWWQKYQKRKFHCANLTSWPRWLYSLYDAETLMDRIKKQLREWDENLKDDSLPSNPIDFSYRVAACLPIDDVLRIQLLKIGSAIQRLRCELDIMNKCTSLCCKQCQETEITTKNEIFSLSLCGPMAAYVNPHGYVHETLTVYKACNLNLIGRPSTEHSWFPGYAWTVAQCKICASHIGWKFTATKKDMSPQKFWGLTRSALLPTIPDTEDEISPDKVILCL
T1 sequence (Q16531 whole entry partner): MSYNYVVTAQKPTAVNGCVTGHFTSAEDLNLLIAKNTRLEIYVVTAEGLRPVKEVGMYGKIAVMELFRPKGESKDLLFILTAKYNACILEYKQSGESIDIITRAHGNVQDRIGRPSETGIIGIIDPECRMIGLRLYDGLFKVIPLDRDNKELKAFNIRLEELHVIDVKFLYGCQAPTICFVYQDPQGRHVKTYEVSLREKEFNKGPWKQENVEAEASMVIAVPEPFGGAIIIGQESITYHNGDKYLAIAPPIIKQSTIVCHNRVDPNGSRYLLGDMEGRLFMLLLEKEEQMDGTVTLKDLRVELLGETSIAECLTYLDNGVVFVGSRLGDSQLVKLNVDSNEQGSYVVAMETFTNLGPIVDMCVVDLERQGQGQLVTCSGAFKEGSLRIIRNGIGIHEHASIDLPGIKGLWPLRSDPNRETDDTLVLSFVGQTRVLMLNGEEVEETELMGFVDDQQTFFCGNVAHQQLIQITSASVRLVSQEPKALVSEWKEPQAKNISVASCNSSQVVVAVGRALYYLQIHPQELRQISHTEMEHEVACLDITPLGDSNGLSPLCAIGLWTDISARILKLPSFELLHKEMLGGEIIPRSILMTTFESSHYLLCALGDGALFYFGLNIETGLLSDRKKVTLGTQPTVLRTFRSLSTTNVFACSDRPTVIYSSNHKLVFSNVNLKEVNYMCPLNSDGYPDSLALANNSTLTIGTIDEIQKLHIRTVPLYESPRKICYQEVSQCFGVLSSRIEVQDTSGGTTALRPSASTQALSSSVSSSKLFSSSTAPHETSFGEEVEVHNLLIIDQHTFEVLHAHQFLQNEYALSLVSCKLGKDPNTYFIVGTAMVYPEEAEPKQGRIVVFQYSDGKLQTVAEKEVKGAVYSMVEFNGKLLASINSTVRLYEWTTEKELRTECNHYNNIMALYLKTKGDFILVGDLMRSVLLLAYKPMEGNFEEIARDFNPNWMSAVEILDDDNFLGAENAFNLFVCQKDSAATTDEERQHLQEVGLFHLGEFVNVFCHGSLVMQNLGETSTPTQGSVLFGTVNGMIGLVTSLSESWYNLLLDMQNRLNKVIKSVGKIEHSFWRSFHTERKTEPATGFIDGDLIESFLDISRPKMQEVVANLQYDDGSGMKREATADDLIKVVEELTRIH

Row | Compound | DC50 [nM] | BTK deg Amax [%]
1 | Cc1c(NC(=O)c2ccc(C(C)(C)O)cc2F)cc(F)cc1-c1ncnc2[nH]c(-c3ccc(CCN4CCC5(CC4)CCN(C(=O)c4ccc(F)c(N6CCC(=O)NC6=O)c4)CC5)cc3)cc12 [Compound 47, N-(3-(6-(4-(2-(9-(3-(2,4-dioxotetrahydropyrimidin-1(2H)-yl)-4-fluorobenzoyl)-3,9-diazaspiro[5.5]undecan-3-yl)ethyl)phenyl)-7H-pyrrolo[2,3-d]pyrimidin-4-yl)-5-fluoro-2-methylphenyl)-2-fluoro-4-(2-hydroxypropan-2-yl)benzamide] | 2.2 | 6.7
2 | COc1ccc(C(=O)N2CCN(CCCCNCc3ccc(-c4cc5c(-c6cc(F)cc(NC(=O)c7ccc(C(C)(C)O)cc7F)c6C)ncnc5[nH]4)cc3)CC2)cc1N1CCC(=O)NC1=O [Compound 40, N-(3-(6-(4-(((4-(4-(3-(2,4-dioxotetrahydropyrimidin-1(2H)-yl)-4-methoxybenzoyl)piperazin-1-yl)butyl)amino)methyl)phenyl)-7H-pyrrolo[2,3-d]pyrimidin-4-yl)-5-fluoro-2-methylphenyl)-2-fluoro-4-(2-hydroxypropan-2-yl)benzamide] | 53.2 | 4.6
3 | Cc1ccc(C(=O)N(C)CCCCCNCc2ccc(-c3cc4c(-c5cc(F)cc(NC(=O)c6ccc(C(C)(C)O)cc6F)c5C)ncnc4[nH]3)cc2)cc1N1CCC(=O)NC1=O [Compound 30, 3-(2,4-Dioxotetrahydropyrimidin-1(2H)-yl)-N-(5-((4-(4-(5-fluoro-3-(2-fluoro-4-(2-hydroxypropan-2-yl)benzamido)-2-methylphenyl)-7H-pyrrolo[2,3-d]pyrimidin-6-yl)benzyl)amino)pentyl)-N,4-dimethylbenzamide] | 47.1 | 5.4
4 | COc1ccc(C(=O)N2CCC(OC3CCN(Cc4ccc(-c5cc6c(-c7cc(F)cc(NC(=O)c8ccc(C(C)(C)O)cc8F)c7C)ncnc6[nH]5)cc4)CC3)CC2)cc1N1CCC(=O)NC1=O [Compound 8, N-(3-(6-(4-((4-((1-(3-(2,4-dioxotetrahydropyrimidin-1(2H)-yl)-4-methoxybenzoyl)piperidin-4-yl)oxyl)piperidin-1-yl)methyl)phenyl)-7H-pyrrolo[2,3-d]pyrimidin-4-yl)-5-fluoro-2-methylphenyl)-2-fluoro-4-(2-hydroxypropan-2-yl)benzamide] | 2.6 | 5.5
5 | Cc1ccc(C(=O)N2CCC3(CCN(Cc4ccc(-c5cc6c(-c7cc(F)cc(NC(=O)c8ccc(C(C)(C)O)cc8F)c7C)ncnc6[nH]5)cc4)CC3)CC2)cc1N1CCC(=O)NC1=O [Compound 27, N-(3-(6-(4-((9-(3-(2,4-Dioxotetrahydropyrimidin-1(2H)-yl)-4-methylbenzoyl)-3,9-diazaspiro[5.5]undecan-3-yl)methyl)phenyl)-7H-pyrrolo[2,3-d]pyrimidin-4-yl)-5-fluoro-2-methylphenyl)-2-fluoro-4-(2-hydroxypropan-2-yl)benzamide] | 1.5 | 4.1
6 | COc1ccc(C(=O)N2CCN(C(=O)N3CCN(Cc4ccc(-c5cc6c(-c7cc(F)cc(NC(=O)c8ccc(C(C)(C)O)cc8F)c7C)ncnc6[nH]5)cc4)CC3)CC2)cc1N1CCC(=O)NC1=O [Compound 22, N-(3-(6-(4-((4-(4-(3-(2,4-Dioxotetrahydropyrimidin-1(2H)-yl)-4-methoxybenzoyl)piperazine-1-carbonyl)piperazin-1-yl)methyl)phenyl)-7H-pyrrolo[2,3-d]pyrimidin-4-yl)-5-fluoro-2-methylphenyl)-2-fluoro-4-(2-hydroxypropan-2-yl)benzamide] | 23.7 | 6.5
7 | COc1ccc(C(=O)N2CCC(OC3CCN(CCc4ccc(-c5cc6c(-c7cc(F)cc(NC(=O)c8ccc(C(C)(C)O)cc8F)c7C)ncnc6[nH]5)cc4)CC3)CC2)cc1N1CCC(=O)NC1=O [Compound 34, N-(3-(6-(4-(2-(4-((1-(3-(2,4-Dioxotetrahydropyrimidin-1(2H)-yl)-4-methoxybenzoyl)piperidin-4-yl)oxyl)piperidin-1-yl)ethyl)phenyl)-7H-pyrrolo[2,3-d]pyrimidin-4-yl)-5-fluoro-2-methylphenyl)-2-fluoro-4-(2-hydroxypropan-2-yl)benzamide] | 3.9 | 1.7
8 | COc1ccc(C(=O)N2CCC3(CCN(Cc4ccc(-c5cc6c(-c7cc(F)cc(NC(=O)c8ccc(C(C)(C)O)cc8F)c7C)ncnc6[nH]5)cc4)CC3)CC2)cc1N1CCC(=O)NC1=O [Compound 9, N-(3-(6-(4-((9-(3-(2,4-Dioxotetrahydropyrimidin-1(2H)-yl)-4-methoxybenzoyl)-3,9-diazaspiro[5.5]undecan-3-yl)methyl)phenyl)-7H-pyrrolo[2.3-d]pyrimidin-4-yl)-5-fluoro-2-methylphenyl)-2-fluoro-4-(2-hydroxypropan-2-yl)benzamide] | 2.1 | 4.5

The next lines start with the values.

Row | DC50 [nM] | BTK deg Amax [%] | Compound
9 | 1 | 3.1 | Cc1ccc(C(=O)N2CCC3(CCN(CCc4ccc(-c5cc6c(-c7cc(F)cc(NC(=O)c8ccc(C(C)(C)O)cc8F)c7C)ncnc6[nH]5)cc4)CC3)CC2)cc1N1CCC(=O)NC1=O [Compound 5, N-(3-(6-(4-(2-(9-(3-(2,4-Dioxotetrahydropyrimidin-1(2H)-yl)-4-methylbenzoyl)-3,9-diazaspiro[5.5]undecan-3-yl)ethyl)phenyl)-7H-pyrrolo[2,3-d]pyrimidin-4-yl)-5-fluoro-2-methylphenyl)-2-fluoro-4-(2-hydroxypropan-2-yl)benzamide]
10 | 149 | 12.7 | COc1ccc(C(=O)NCCN2CCOC3(CCN(Cc4ccc(-c5cc6c(-c7cc(F)cc(NC(=O)c8ccc(C(C)(C)O)cc8F)c7C)ncnc6[nH]5)cc4)CC3)C2)cc1N1CCC(=O)NC1=O [Compound 39, N-(3-(6-(4-((4-(2-(3-(2,4-dioxotetrahydropyrimidin-1(2H)-yl)-4-methoxybenzamido)ethyl)-1-oxa-4,9-diazaspiro[5.5]undecan-9-yl)methyl)phenyl)-7H-pyrrolo[2,3-d]pyrimidin-4-yl)-5-fluoro-2-methylphenyl)-2-fluoro-4-(2-hydroxypropan-2-yl)benzamide]
11 | 0.6 | 2.7 | COc1ccc(C(=O)N2CCC(CN3CCC(Oc4ccc(-c5cc6c(-c7cc(F)cc(NC(=O)c8ccc(C(C)(C)O)cc8F)c7C)ncnc6[nH]5)cc4)CC3)CC2)cc1N1CCC(=O)NC1=O [Compound 19, N-(3-(6-(4-((1-((1-(3-(2,4-Dioxotetrahydropyrimidin-1(2H)-yl)-4-methoxybenzoyl)piperidin-4-yl)methyl)piperidin-4-yl)oxyl)phenyl)-7H-pyrrolo[2,3-d]pyrimidin-4-yl)-5-fluoro-2-methylphenyl)-2-fluoro-4-(2-hydroxypropan-2-yl)benzamide]
12 | 29.9 | 40.6 | Cc1c(NC(=O)c2ccc(C(C)(C)O)cc2F)cc(F)cc1-c1ncnc2[nH]c(-c3ccc(CCN4CCC5(CC4)CCN(C(=O)c4cccc(N6CCC(=O)NC6=O)c4)CC5)cc3)cc12 [Compound 12, N-(3-(6-(4-(2-(9-(3-(2,4-Dioxotetrahydropyrimidin-1(2H)-yl)benzoyl)-3,9-diazaspiro[5,5]undecan-3-yl)ethyl)phenyl)-7H-pyrrolo[2,3-d]pyrimidin-4-yl)-5-fluoro-2-methylphenyl)-2-fluoro-4-(2-hydroxypropan-2-yl)benzamide]
13 | 235 | 48.4 | COc1ccc(C(=O)NCCN2CCC3(CC2)CCN(Cc2ccc(-c4cc5c(-c6cc(F)cc(NC(=O)c7ccc(C(C)(C)O)cc7F)c6C)ncnc5[nH]4)cc2)CC3)cc1N1CCC(=O)NC1=O [Compound 44, N-(3-(6-(4-((9-(2-(3-(2,4-dioxotetrahydropyrimidin-1(2H)-yl)-4-methoxybenzamido)ethyl)-3,9-diazaspiro[5.5]undecan-3-yl)methyl)phenyl)-7H-pyrrolo[2,3-d]pyrimidin-4-yl)-5-fluoro-2-methylphenyl)-2-fluoro-4-(2-hydroxypropan-2-yl)benzamide]
14 | 3.8 | 11.7 | Cc1c(NC(=O)c2ccc(C(C)(C)O)cc2F)cc(F)cc1-c1ncnc2[nH]c(-c3ccc(CN4CCC5(CC4)CCN(C(=O)c4ccc(F)c(N6CCC(=O)NC6=O)c4)CC5)cc3)cc12 [Compound 14, N-(3-(6-(4-((9-(3-(2,4-Dioxotetrahydropyrimidin-1(2H)-yl)-4-fluorobenzoyl)-3,9-diazaspiro[5.5]undecan-3-yl)methyl)phenyl)-7H-pyrrolo[2.3-d]pyrimidin-4-yl)-5-fluoro-2-methylphenyl)-2-fluoro-4-(2-hydroxypropan-2-yl)benzamide]
15 | 19.9 | 3.1 | Cc1cc(F)c(C(=O)NCCCCCNCc2ccc(-c3cc4c(-c5cc(F)cc(NC(=O)c6ccc(C(C)(C)O)cc6F)c5C)ncnc4[nH]3)cc2)cc1N1CCC(=O)NC1=O [Compound 29, 5-(2,4-Dioxotetrahydropyrimidin-1(2H)-yl)-2-fluoro-N—(S-((4-(4-(5-fluoro-3-(2-fluoro-4-(2-hydroxypropan-2-yl)benzamido)-2-methylphenyl)-7H-pyrrolo[2,3-d]pyrimidin-6-yl)benzyl)amino)pentyl)-4-methylbenzamide]
16 | 3.7 | 7.8 | CCOc1ccc(C(=O)N2CCC3(CCN(Cc4ccc(-c5cc6c(-c7cc(F)cc(NC(=O)c8ccc(C(C)(C)O)cc8F)c7C)ncnc6[nH]5)cc4)CC3)CC2)cc1N1CCC(=O)NC1=O [Compound 4, N-(3-(6-(4-((9-(3-(2,4-Dioxotetrahydropyrimidin-1(2H)-yl)-4-ethoxybenzoyl)-3,9-diazaspiro[5.5]undecan-3-yl)methyl)phenyl)-7H-pyrrolo[2,3-d]pyrimidin-4-yl)-5-fluoro-2-methylphenyl)-2-fluoro-4-(2-hydroxypropan-2-yl)benzamide]
